Test results: US20150045313A1, “Ectoparasiticidal Methods and Formulations” (Eli Lilly and Company, priority 2009, published 2015)
Like-named read-outs stand apart in the source and are kept apart here.

Tests used:
House Fly = experiment: Adult House Fly Assay (AhsF); set-up: species or system Musca domestica; conditions: House Fly, 24 h
Protocol: Adult Stable or House Fly Assay (ASF, AhsF). This assay is conducted essentially as described in White, W. H., S. M. Bauer, X. Zhao et al., Comparison of in vitro and in vivo ectoparasiticide activity of an experimental benzimidazole-carbamate with permethrin and amitraz, J. Med. Entomol. 42, 207-211 (2005); and White, W. H., C. M. McCoy, J. A. Meyer et al., Knockdown and mortality comparisons among spinosad-, imidacloprid-, and methomyl-containing baits against susceptible Musca domestica (Diptera: Muscidae) under laboratory conditions, J. Econ. Entomol. 100, 155-163 (2007).
Test material is formulated in DMSO at 10 mM. Doubling dilutions in like solvent are made to yield 10 testing levels. Materials are diluted in either bovine serum (stable flies) or 5% glucose solution (house flies) to obtain desired exposure concentrations from 200-0.39 μM. Approximately 3 ml of diluted test material is placed into a test tube (n=3 per test level) and a dental wick is used to absorb fluid. One dental wick is placed into a small weigh boat inside of a 100 mm Petri dish. Approximately 10 mixed-sex adult flies are anesthetized using carbon dioxide and counted into each dish. Dishes are incubated at 27° C. and 50-70% relative humidity. Flies recover from anesthesia and feed on compound-soaked dental wicks. After 24 h, live/dead flies are enumerated. Nonlinear regression is used to model dose-mortality relationship and obtain relative potency (LD50) data compared to contemporaneous controls (solvent-only or permethrin).

house flies = system: house flies
Protocol: Knockdown and residual efficacy testing and comparison of spinetoram with Elector® for controlling house flies on treated panels.
Test material concentrates of spinetoram (120 g/L suspension concentrate) and spinosad (25 g/L suspension concentrate, Elector) were diluted in distilled water to the desired testing concentrations of either 0.04% (spinetoram only) or 0.08% (both) per label recommended premise spray use rate for controlling house flies with Elector. One square foot panels, obtained from commercial building suppliers, were composed of non-treated plywood, concrete and sheet metal. A second set of both plywood and concrete substrates were primed and painted using exterior grade latex white latex paint. Diluted materials were sprayed onto panels to the point of run-off (approximately 5 seconds per panel). A total of 4 panels were tested per treatment group (n=4). House flies were anesthetized using carbon dioxide and placed inside of plastic containers secured onto panels. There were 4 sub-replicates containers per panel, each container containing 10 mixed-sex adult flies (40 flies per panel). Glucose-saturated dental wicks were secured through a hole in each cup to provide a food and water source for flies. Panels remained upright throughout testing. Fly mortality and moribundity was assessed at post-exposure intervals of 4, 8, 24, 48 and 72 hours immediately following treatment applications and again on a weekly basis for 1 month.

[1] = system: Lone Star Tick (Amblyomma americanum); experiment: Cattle Ectoparasiticide Test, single dose whole-body spray against lone star tick; format: in vivo
From the text: Cattle Ectoparasiticide Test (CET)/Horn Fly (Haematobia irritans) and/or Adult Tick (Amblyomma americanum): Cattle are housed in environmentally controlled rooms, 1 or 2 animals per room that have screened doors and ventilation system to prevent fly escape. Following treatment application, a defined number of horn flies are released into each room (typically at or above economic threshold of 200 flies per animal). After defined periods of time, the numbers of live horn flies remaining on animals are enumerated. If a combination horn fly and tick experiment is conducted, adult lone star ticks are placed into surgical stockinette enclosures that are glued onto the backs of cattle. Cattle are restrained in a modified head gate within environmentally controlled rooms. Horn flies may be enumerated, followed by determination of the numbers of dead ticks inside of containment units. Typically there are 2 containment units per animal and at least 2 animals per treatment group.
A) Single Dose Efficacy Testing and Comparison of Spinetoram with Elector against Lone Star Tick (Amblyomma americanum) Infestations on Cattle. Technical spinetoram was formulated as a 25 g/L suspension concentrate using the same formulatin components as found in Elector. Test material was applied to animals as a whole-body topical spray. Total of two animals per treatment group; each animal harbored ticks inside of 3 containment units (n=3 per animal or n=6 per treatment group). Concentrates (25 g/L) diluted in water; treatment level equivalent to marketed rate for Elector (0.5 g AI per animal).

[2] = 4 Week Residual Activity, Sheet Metal, 400 ppm
[3] = 4 Week Residual Activity, Sheet Metal, 800 ppm
[4] = 4 Week Residual Activity, Unpainted Concrete, 400 ppm
[5] = 4 Week Residual Activity, Unpainted Concrete, 800 ppm
[6] = 4 Week Residual Activity, Unpainted Wood, 400 ppm
[7] = 4 Week Residual Activity, Unpainted Wood, 800 ppm
[8] = Initial Activity, Sheet Metal, 400 ppm
[9] = Initial Activity, Sheet Metal, 800 ppm
[10] = Initial Activity, Unpainted Concrete, 400 ppm
[11] = Initial Activity, Unpainted Concrete, 800 ppm
[12] = Initial Activity, Unpainted Wood, 400 ppm
[13] = Initial Activity, Unpainted Wood, 800 ppm

Spinetoram was tested, and the “Spinetoram: Spinosad Potency Ratio” value (House Fly) was 5.5, the EC50 (House Fly; read-out: Potency (24 h EC50 μM)) was 2.18 µM and the “% House Fly Mortality at 4 h” value (house flies; [2]) was 0%. For the same substance, the “% House Fly Mortality at 8 h” value (house flies; [2]) was 40.6%, the “% House Fly Mortality at 24 h” value (house flies; [2]) was 91.3% and the “% House Fly Mortality at 48 h” value (house flies; [2]) was 97.3%. For the same substance, the “% House Fly Mortality at 4 h” value (house flies; [3]) was 0.6%, the “% House Fly Mortality at 8 h” value (house flies; [3]) was 26.3% and the “% House Fly Mortality at 24 h” value (house flies; [3]) was 80.6%. The “% House Fly Mortality at 48 h” value (house flies; [3]) was 96.3%, the “% House Fly Mortality at 4 h” value (house flies; [4]) was 4.2% and the “% House Fly Mortality at 8 h” value (house flies; [4]) was 80.0%. The “% House Fly Mortality at 24 h” value (house flies; [4]) was 100%, the “% House Fly Mortality at 48 h” value (house flies; [4]) was 100% and the “% House Fly Mortality at 4 h” value (house flies; [5]) was 31.3%. For the same substance, the “% House Fly Mortality at 8 h” value (house flies; [5]) was 98.8%, the “% House Fly Mortality at 24 h” value (house flies; [5]) was 100% and the “% House Fly Mortality at 48 h” value (house flies; [5]) was 100%. For the same substance, the “% House Fly Mortality at 4 h” value (house flies; [6]) was 0.6%, the “% House Fly Mortality at 8 h” value (house flies; [6]) was 0.6% and the “% House Fly Mortality at 24 h” value (house flies; [6]) was 4.7%. The “% House Fly Mortality at 48 h” value (house flies; [6]) was 12.1%, the “% House Fly Mortality at 4 h” value (house flies; [7]) was 0% and the “% House Fly Mortality at 8 h” value (house flies; [7]) was 0%. For the same substance, the “% House Fly Mortality at 24 h” value (house flies; [7]) was 22.6%, the “% House Fly Mortality at 48 h” value (house flies; [7]) was 61.2% and the “% House Fly Mortality at 4 h” value (house flies; [8]) was 19.7%. The “% House Fly Mortality at 8 h” value (house flies; [8]) was 91.8%, the “% House Fly Mortality at 24 h” value (house flies; [8]) was 100% and the “% House Fly Mortality at 48 h” value (house flies; [8]) was 100%. For the same substance, the “% House Fly Mortality at 4 h” value (house flies; [9]) was 31.5%, the “% House Fly Mortality at 8 h” value (house flies; [9]) was 100% and the “% House Fly Mortality at 24 h” value (house flies; [9]) was 100%. For the same substance, the “% House Fly Mortality at 48 h” value (house flies; [9]) was 100%, the “% House Fly Mortality at 4 h” value (house flies; [10]) was 45.4% and the “% House Fly Mortality at 8 h” value (house flies; [10]) was 98.6%. The “% House Fly Mortality at 24 h” value (house flies; [10]) was 100%, the “% House Fly Mortality at 48 h” value (house flies; [10]) was 100% and the “% House Fly Mortality at 4 h” value (house flies; [11]) was 42.5%. The “% House Fly Mortality at 8 h” value (house flies; [11]) was 99.2%, the “% House Fly Mortality at 24 h” value (house flies; [11]) was 100% and the “% House Fly Mortality at 48 h” value (house flies; [11]) was 100%. The “% House Fly Mortality at 4 h” value (house flies; [12]) was 1.3%, the “% House Fly Mortality at 8 h” value (house flies; [12]) was 5.9% and the “% House Fly Mortality at 24 h” value (house flies; [12]) was 83.7%. The “% House Fly Mortality at 48 h” value (house flies; [12]) was 98.8%, the “% House Fly Mortality at 4 h” value (house flies; [13]) was 0.6% and the “% House Fly Mortality at 8 h” value (house flies; [13]) was 39.4%. The “% House Fly Mortality at 24 h” value (house flies; [13]) was 100%, the “% House Fly Mortality at 48 h” value (house flies; [13]) was 100% and the “activity compared to Elector” value (house flies; at one half the application rate, sheet metal and unpainted concrete panels) was “equivalent or superior to Elector”. The “initial activity compared to Elector” value (house flies; unpainted plywood) was “equivalent initial activity”, the “residual activity compared to Elector” value (house flies; unpainted plywood) was “marginally inferior residual activity” and the “percent tick reduction, 2 hr” value ([1]; cattle, whole-body spray 0.5 g AI per animal, Day 1, 2 hr) was 0%. For the same substance, the “percent tick reduction, 6 hr” value ([1]; cattle, whole-body spray 0.5 g AI per animal, Day 1, 6 hr) was 0%, the “percent tick reduction, 10 hr” value ([1]; cattle, whole-body spray 0.5 g AI per animal, Day 1, 10 hr) was 0% and the “percent tick reduction, 24 hr” value ([1]; cattle, whole-body spray 0.5 g AI per animal, Day 2, 24 hr) was 0%. For the same substance, the “percent tick reduction, 48 hr” value ([1]; cattle, whole-body spray 0.5 g AI per animal, Day 3, 48 hr) was 8.14%, the “percent tick reduction, 72 hr” value ([1]; cattle, whole-body spray 0.5 g AI per animal, Day 4, 72 hr) was 8.14% and the “percent tick reduction, 144 hr” value ([1]; cattle, whole-body spray 0.5 g AI per animal, Day 7, 144 hr) was 46.67%. For the same substance, the “ET50” value ([1]; speed of kill, adult lone star ticks on cattle, 0.5 g AI per animal) was 148.2 h and the “activity (potency and speed of kill) compared to Elector” value ([1]; topically to cattle at 0.5 g/animal) was “equivalent activity”.
